In article PMC3224971, “An exo-cell assay for examining real-time γ-secretase activity and inhibition” (Molecular Neurodegeneration, 2009):

Legend:
γ-secretase [1] = molecular target: T1, γ-secretase (Homo sapiens, UniProt P49768); assay: exo-cell γ-secretase assay in HeLa cells; assay type: cell-based; settings: HeLa cells incubated simultaneously with GSI, 1 μM Sb4 and 0.25% CHAPSO, 2.5 hours; ECL detection
Protocol: (§1) Cells were seeded at their indicated concentration in 96-well plates and allowed to attach overnight (Fig. 1c). The next day, media was removed and cells were washed once with PBS. Fresh media was then added containing 0.25% CHAPSO detergent, Sb4 substrate to a final concentration of 1 μM, and 1% DMSO or γ-secretase inhibitor. This was incubated for 2.5 hours at 37°C. Media was removed and cell debris was pelleted from this media for 5 min. at 3,500 rpm's. Supernatant was then added to ruthenylated G2-10* antibody that recognizes cleaved product, but not uncleaved substrate. This was incubated for an additional 2 hours at room temperature. Finally, magnetic streptavidin beads were added to a final concentration of 80 μg/ml and incubated for 30 min. at room temperature. Assay buffer was added to the samples and γ-secretase-mediated cleavage of substrate was monitored using electrochemiluminescence (ECL). Protocol for HTRF detection can be found below.
Homogeneous time-resolved fluorescence (HTRF) was also incorporated for the exo-cell assay detection of cleaved substrate. […] Exo-cell supernatent and HTRF detection mix were incubated together for 5 hours in a 384-well plate and then activity was measured by stimulating at 337 nm and reading at 665 nm.

γ-secretase [2] = molecular target: T2, γ-secretase (Mus musculus, UniProt P49769); assay: cell-based γ-secretase assay in N2A cells stably overexpressing APP; settings: 24 hours with GSI, Aβ 40-site cleavage, ECL detection
Protocol: The cell-based assay utilized N2A mouse neuroblastoma cells that stably overexpress the amyloid precursor protein. These were incubated with γ-secretase inhibitors in a final concentration of 1% DMSO for 24 hours. Following incubation, the supernatant was removed from the cells and assayed for Aβ 40-site cleaved APP product using ruthenylated G2-10* antibody as well as biotinylated 4G8 antibody.

A20 mouse lymphoma cells = assay: lymphoma proliferation assay ([3H]thymidine incorporation); assay type: cell-based; settings: for inhibition of cellular proliferation (in words): 48 hours of treatment
Protocol: A20 mouse lymphoma cells were seeded in a 96-well plate at a concentration of 5 × 10^5 cells/ml in 100 μl RPMI media containing 2% fetal bovine serum. An additional 100 μl of media containing DMSO or γ-secretase inhibitor was added and incubated for 48 hours at 37°C. After this incubation, the cells were incubated for 5 hours with 2 μCi/ml [^3H]thymidine at 37°C. Proliferative response was then evaluated by harvesting the tritiated DNA from cells using a Skatron cell harvester and proliferation assessed as a function of [^3H]thymidine incorporation measured on a β-counter.

γ-secretase [3] = molecular target: T1, γ-secretase; assay: extended exo-cell γ-secretase assay in HeLa cells; assay type: cell-based
Protocol: as §1
Conversely, an extended exo-cell assay was performed whereby cells were seeded and allowed to attach overnight as previously described. However, the next day media was removed and replaced with fresh media containing 1% DMSO or γ-secretase inhibitor. These were incubated for 24 hours at 37°C. Following this incubation, the cells were washed once with PBS and fresh media containing detergent and substrate were added. […]

γ-secretase [4] = molecular target: T1, γ-secretase; assay: in vitro γ-secretase assay with Sb4 substrate and solubilized γ-secretase; assay type: biochemical; settings: Sb4 substrate, 0.25% CHAPSO, solubilized γ-secretase, 2.5 hours at 37°C, ECL detection
Protocol: The in vitro and cell-based γ-secretase assays were performed similarly as previously described. Briefly, the recombinant Sb4 substrate was incubated for 2.5 hours at 37°C in pH 7.0 PIPES buffer in the presence of 0.25% CHAPSO detergent and solubilized γ-secretase at a final concentration of 40 ng/ul. The detection of cleaved substrate was determined using ruthenylated G2-10* antibody. Due to biotinylation of the Sb4 substrate, this eliminated the additional use of 6E10 biotinylated antibody from the original protocol.

γ-secretase [5] = molecular target: T2, γ-secretase; assay: real-time exo-cell γ-secretase assay in A20 mouse lymphoma cells; assay type: cell-based; settings: 300 nM, 48 hours treatment
Protocol: Figure 4 Examination of real-time γ-secretase activity in A20 lymphoma and in primary B-CLL patient samples. (a) Correlation between real-time inhibition of γ-secretase activity and GSI-mediated inhibition of A20 mouse lymphoma proliferation. Two 96-well plates were seeded with 50,000 A20 mouse lymphoma cells per well in 100 μl RPMI media. To each of these plates an additional 100 μl of media was added containing DMSO or GSI-34 to indicated final concentration. These plates were incubated for 48 hours at 37°C. Following this incubation, one plate was used in a real-time exo-cell assay to quantitate the real-time inhibition of γ-secretase in A20 cells. Briefly, A20 cells were pelleted and media removed. Fresh media containing 1 μM Sb4 substrate and 0.25% CHAPSO detergent were added and the exo-cell assay was performed. For each assay point n = 4, and s.d. is plotted. Additionally, to the other 96-well plate 2 μCi/ml [^3H]thymidine was incubated with the cells for 5 hours. Following 5-hour incubation at 37°C, the amount of tritiated DNA was quantified on a β-counter. For each proliferation assay point n = 10, and s.d. is plotted. (b) Real-time γ-secretase activity in primary B-CLL patient samples. […] Assay buffer was added to the samples and γ-secretase-mediated cleavage of substrate was monitored using electrochemiluminescence (ECL). […]

IC50 (γ-secretase [4]) [nM] | inhibition at 0.3 µM (γ-secretase [5]) [%] | inhibition of γ-secretase activity (in words) (γ-secretase [3]; HeLa cells treated 24 hours with varying concentrations) | Structure (SMILES) | IC50 (γ-secretase [1]) [nM] | IC50 (γ-secretase [2]) [nM] | inhibition of cellular proliferation (in words) (A20 mouse lymphoma cells) | IC50 (γ-secretase [3]; HeLa cells incubated with GSI for 24 hours, washed, then Sb4 and CHAPSO, ECL detection) [nM] | reduction of cellular proliferation (A20 mouse lymphoma cells; 300 nM, 48 hours treatment) [%]
– | – | – | CC(NC(=O)Cc1cc(F)cc(F)c1)C(=O)NC1N=C(c2ccccc2)c2ccccc2N(C)C1=O (stereo not shown) [Compound E] | 3.8 | 4.6 | able to inhibit cellular proliferation | 2.8 | –
1 | ~80 | Dose-dependent inhibition | O=C(COc1ccc(F)cc1)Nc1ccc2c(c1)CC1CCC(C2)C1NS(=O)(=O)c1ccc(Cl)s1 (stereo not shown) [GSI-34] | – | – | able to inhibit cellular proliferation | – | 30
– | – | – | CC(C)C[C@H](NC(=O)[C@H](Cc1ccccc1)C[C@@H](O)[C@H](Cc1ccccc1)NC(=O)OC(C)(C)C)C(=O)N[C@@H](Cc1ccccc1)C(N)=O [L-685,458] | – | – | able to inhibit cellular proliferation | – | –
